Common to all, as to format: functional
One test deals with Streptococcus pneumoniae. The test can be described thus: Antibacterial activity against Streptococcus pneumoniae RCMB 010010 by broth dilution method. Background: In broth dilution the organism is exposed to a series of concentrations in liquid medium.
The subject of a further test is Bacillus subtilis. The test can be described thus: Antibacterial activity against Bacillus subtilis RCMB 010067 by broth dilution method.
Test [1] deals with Staphylococcus aureus. As to the kind of experiment: Antibacterial activity against Staphylococcus aureus RCMB 010025 by broth dilution method.
Test [2] concerns Pseudomonas aeruginosa. As to the kind of experiment: Antibacterial activity against Pseudomonas aeruginosa RCMB 010043 by broth dilution method.
For test [3], the system named is Escherichia coli. As to the kind of experiment: Antibacterial activity against Escherichia coli RCMB 010052 by broth dilution method.
The test system of another test is Klebsiella pneumoniae. The test can be described thus: Antibacterial activity against Klebsiella pneumonia RCMB 010058 by broth dilution method.
For a further test, the system named is Bacillus cereus. The test can be described thus: Antibacterial activity against Bacillus cereus ATCC 10876 incubated for 24 hrs by microdilution method.
The next test relates to Enterococcus faecalis. As to the kind of experiment: Antibacterial activity against Enterococcus faecalis ATCC 29212 incubated for 24 hrs by microdilution method.
Test [4] relates to Staphylococcus aureus. The test can be described thus: Antibacterial activity against Staphylococcus aureus ATCC 25923 incubated for 24 hrs by microdilution method.
Another test relates to Proteus mirabilis. The test can be described thus: Antibacterial activity against Proteus mirabilis ATCC 35659 incubated for 24 hrs by microdilution method.
The subject of test [5] is Escherichia coli. As to the kind of experiment: Antibacterial activity against Escherichia coli ATCC 25922 incubated for 24 hrs by microdilution method.
For test [6], the system named is Pseudomonas aeruginosa. The test can be described thus: Antibacterial activity against Pseudomonas aeruginosa ATCC 27853 incubated for 24 hrs by microdilution method.
For a further test, the system named is Candida albicans. The test can be described thus: Antifungal activity against Candida albicans ATCC 50193 incubated for 24 hrs by microdilution method.
The next test has as its system Aspergillus brasiliensis. As to the kind of experiment: Antifungal activity against Aspergillus brasiliensis ATCC 16404 incubated for 24 hrs by microdilution method.
The subject of test [7] is Pseudomonas aeruginosa. As to the kind of experiment: Antibacterial activity against Pseudomonas aeruginosa 12 incubated for 20 hrs by agar dilution method. In general terms: Agar dilution tests growth on a series of plates holding different concentrations.
Test [8] relates to Escherichia coli. The test can be described thus: Antibacterial activity against Escherichia coli NIHJ JC2 incubated for 20 hrs by agar dilution method.
Test [9] deals with Staphylococcus aureus. As to the kind of experiment: Antibacterial activity against Staphylococcus aureus 209P JC1 incubated for 20 hrs by agar dilution method.

Molecules are shown by their SMILES. In brackets after ≈: the same amount, converted by molar mass.

Broadly, the MIC is the least concentration at which growth counts as inhibited. A high value points to a need for much substance. With `CC(=O)OCC(CSc1nnc(-c2nnn(-c3ccccc3Cl)c2-c2nnc(SCC(COC(C)=O)OC(C)=O)o2)o1)OC(C)=O` (stereo not given), the MIC with Streptococcus pneumoniae, against Bacillus subtilis, in the test with Staphylococcus aureus [1], in the test with Pseudomonas aeruginosa [2], against Escherichia coli [3] and in the test with Klebsiella pneumoniae was 31.2 µg/mL (≈ 44.9 µM) each time.

For the compound `CCCCCCCCCCCCCCn1nnc(-c2n[nH]c(=S)n2N)c1-c1n[nH]c(=S)n1N`, the MIC against Bacillus cereus, in the test with Enterococcus faecalis, against Staphylococcus aureus [4], with Proteus mirabilis, against Escherichia coli [5] and against Pseudomonas aeruginosa [6] was 1 µg/mL (≈ 2.03 µM) throughout. Besides, the MIC against Candida albicans and against Aspergillus brasiliensis was 1 µg/mL (≈ 2.03 µM) each time.

`CCCCCCCCCCn1nnc(-c2n[nH]c(=S)n2-c2ccccc2)c1-c1n[nH]c(=S)n1-c1ccccc1`: the MIC with Bacillus cereus, in the test on Enterococcus faecalis, against Staphylococcus aureus [4], in the test on Proteus mirabilis, in the test on Escherichia coli [5] and against Pseudomonas aeruginosa [6] was 2 µg/mL (≈ 3.57 µM) in each case. For the same compound, the MIC with Candida albicans and against Aspergillus brasiliensis was 2 µg/mL (≈ 3.57 µM) throughout.

For the compound `CC1CCN(c2cc3c(c(=O)c(C(=O)O)cn3C3CC3)c3[nH]nnc23)CC1`, the MIC in the test with Pseudomonas aeruginosa [7], in the test on Escherichia coli [8] and against Staphylococcus aureus [9] was 0.05 µg/mL (≈ 0.136 µM) in each case.

As for `CCCCCCCCn1nnc(-c2n[nH]c(=S)n2-c2ccccc2)c1-c1n[nH]c(=S)n1-c1ccccc1`, the MIC against Bacillus cereus, against Enterococcus faecalis, in the test with Staphylococcus aureus [4], in the test on Proteus mirabilis, against Escherichia coli [5] and with Pseudomonas aeruginosa [6] was 2 µg/mL (≈ 3.76 µM) throughout. The MIC against Candida albicans and against Aspergillus brasiliensis was 2 µg/mL (≈ 3.76 µM) each time.

`CCCCCCCCCCCCn1nnc(-c2n[nH]c(=S)n2N)c1-c1n[nH]c(=S)n1N`: the minimum inhibitory concentration (MIC) with Bacillus cereus, against Enterococcus faecalis, in the test on Staphylococcus aureus [4], against Proteus mirabilis, in the test on Escherichia coli [5] and in the test on Pseudomonas aeruginosa [6] was 1 µg/mL (≈ 2.15 µM) each time. For the same compound, the MIC against Candida albicans and against Aspergillus brasiliensis was 1 µg/mL (≈ 2.15 µM) in each case.

In the case of `CC1CCN(c2c(F)c3c(c(=O)c(C(=O)O)cn3C3CC3)c3[nH]nnc23)CC1`, the MIC in the test on Pseudomonas aeruginosa [7], with Escherichia coli [8] and with Staphylococcus aureus [9] was 0.05 µg/mL (≈ 0.13 µM) in each case.

Consider `OCCCSc1nnc(-c2nnn(-c3ccccc3Cl)c2-c2nnc(SCCCO)o2)o1`, for which the MIC in the test with Streptococcus pneumoniae, in the test on Bacillus subtilis, against Staphylococcus aureus [1], against Pseudomonas aeruginosa [2], with Escherichia coli [3] and with Klebsiella pneumoniae was 4 µg/mL (≈ 8.06 µM) throughout.

With `CCOCSc1nnc(-c2nnn(-c3ccccc3Cl)c2-c2nnc(SCOCC)o2)o1`, the MIC in the test on Streptococcus pneumoniae, with Bacillus subtilis, with Staphylococcus aureus [1], with Pseudomonas aeruginosa [2], against Escherichia coli [3] and against Klebsiella pneumoniae was 31.2 µg/mL (≈ 63 µM) in each case.

Consider `CCOCCSc1nnc(-c2nnn(-c3ccccc3Cl)c2-c2nnc(SCCOCC)o2)o1`, for which the MIC in the test with Streptococcus pneumoniae, against Bacillus subtilis, in the test on Staphylococcus aureus [1], in the test on Pseudomonas aeruginosa [2], with Escherichia coli [3] and with Klebsiella pneumoniae was 31.2 µg/mL (≈ 59.6 µM) each time.

As for `CCCCCCCCCCCCCCn1nnc(-c2n[nH]c(=S)n2-c2ccccc2)c1-c1n[nH]c(=S)n1-c1ccccc1`, the MIC with Bacillus cereus, in the test on Enterococcus faecalis, against Staphylococcus aureus [4], in the test on Proteus mirabilis, against Escherichia coli [5] and against Pseudomonas aeruginosa [6] was 2 µg/mL (≈ 3.25 µM) in each case. Also, the MIC in the test on Candida albicans and in the test with Aspergillus brasiliensis was 2 µg/mL (≈ 3.25 µM) in each case.

On to `CC(=O)OCCSc1nnc(-c2nnn(-c3ccccc3Cl)c2-c2nnc(SCCOC(C)=O)o2)o1`, for which the MIC in the test on Streptococcus pneumoniae, with Bacillus subtilis, against Staphylococcus aureus [1], in the test with Pseudomonas aeruginosa [2], against Escherichia coli [3] and in the test on Klebsiella pneumoniae was 31.2 µg/mL (≈ 56.6 µM) in each case.

As for `CCCCCCCCCCn1nnc(-c2n[nH]c(=S)n2N)c1-c1n[nH]c(=S)n1N`, the MIC in the test on Bacillus cereus, against Enterococcus faecalis, in the test on Staphylococcus aureus [4], in the test with Proteus mirabilis, with Escherichia coli [5] and against Pseudomonas aeruginosa [6] was 1 µg/mL (≈ 2.29 µM) throughout. Also, the MIC against Candida albicans and against Aspergillus brasiliensis was 1 µg/mL (≈ 2.29 µM) each time.

Take `OCCSc1nnc(-c2nnn(-c3ccccc3Cl)c2-c2nnc(SCCO)o2)o1`: the MIC against Streptococcus pneumoniae, in the test on Bacillus subtilis, in the test with Staphylococcus aureus [1], with Pseudomonas aeruginosa [2], against Escherichia coli [3] and in the test on Klebsiella pneumoniae was 4 µg/mL (≈ 8.55 µM) each time.

Source of the values: ChEMBL document CHEMBL4699440, “Comprehensive review on the anti-bacterial activity of 1,2,3-triazole hybrids” (Eur J Med Chem, 2019).
